Legend:
[1] = tested on: HCT-116; assay: Antiproliferative activity against human HCT116 cells
[2] = biological target: Serine/threonine-protein kinase PLK3 (Homo sapiens) (UniProt Q9H4B4); assay: Inhibition of Plk3 at assessed as residual enzyme activity at 1 uM
[3] = biological target: Proto-oncogene tyrosine-protein kinase receptor Ret (Homo sapiens) (UniProt P07949); assay: Inhibition of human Ret kinase assessed as residual enzyme activity at 0.1 uM
[4] = biological target: Serine/threonine-protein kinase MARK1 (Homo sapiens) (UniProt Q9P0L2); assay: Inhibition of human MARK1 kinase assessed as residual enzyme activity at 0.1 uM
[5] = biological target: Inhibitor of nuclear factor kappa-B kinase subunit alpha (Homo sapiens) (UniProt O15111); assay: Inhibition of human IKKalpha kinase assessed as residual enzyme activity at 0.1 uM
[6] = biological target: Serine/threonine-protein kinase D2 (Homo sapiens) (UniProt Q9BZL6); assay: Inhibition of human PKD2 kinase assessed as residual enzyme activity at 0.1 uM
Serine/threonine-protein kinase D2 (Homo sapiens), sequence (Q9BZL6 whole entry): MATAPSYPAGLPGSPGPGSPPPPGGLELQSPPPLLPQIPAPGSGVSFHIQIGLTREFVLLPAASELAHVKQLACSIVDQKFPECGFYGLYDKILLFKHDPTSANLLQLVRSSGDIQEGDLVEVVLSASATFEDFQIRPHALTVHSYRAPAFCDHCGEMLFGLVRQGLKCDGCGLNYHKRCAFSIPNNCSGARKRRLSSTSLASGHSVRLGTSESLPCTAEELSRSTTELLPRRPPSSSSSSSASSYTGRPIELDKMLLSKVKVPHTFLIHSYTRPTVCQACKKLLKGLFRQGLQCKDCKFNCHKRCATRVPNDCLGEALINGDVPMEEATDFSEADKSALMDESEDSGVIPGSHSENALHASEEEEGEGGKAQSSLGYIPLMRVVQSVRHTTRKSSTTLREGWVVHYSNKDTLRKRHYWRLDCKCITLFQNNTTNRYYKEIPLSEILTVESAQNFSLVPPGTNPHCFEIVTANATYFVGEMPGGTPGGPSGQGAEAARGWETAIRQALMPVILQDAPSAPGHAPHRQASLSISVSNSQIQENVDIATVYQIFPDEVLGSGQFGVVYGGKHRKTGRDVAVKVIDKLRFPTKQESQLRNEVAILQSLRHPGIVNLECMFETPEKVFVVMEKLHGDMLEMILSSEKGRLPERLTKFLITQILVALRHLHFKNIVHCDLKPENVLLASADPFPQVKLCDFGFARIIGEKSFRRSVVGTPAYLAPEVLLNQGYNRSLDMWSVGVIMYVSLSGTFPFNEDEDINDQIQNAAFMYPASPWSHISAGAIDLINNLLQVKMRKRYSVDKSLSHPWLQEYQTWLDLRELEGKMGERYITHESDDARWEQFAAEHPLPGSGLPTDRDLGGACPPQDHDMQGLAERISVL

[7] = Inhibition of CDK9/CyclinT1 assessed as residual enzyme activity at 1 uM
[8] = biological target: Tyrosine-protein kinase Lck (Homo sapiens) (UniProt P06239); assay: Inhibition of human Lck assessed as residual enzyme activity at 0.1 uM
[9] = biological target: Platelet-derived growth factor receptor beta (Homo sapiens) (UniProt P09619); assay: Inhibition of human PDGFRbeta kinase assessed as residual enzyme activity at 0.1 uM
[10] = biological target: Homeodomain-interacting protein kinase 2 (Homo sapiens) (UniProt Q9H2X6); assay: Inhibition of human HIPK2 kinase assessed as residual enzyme activity at 0.1 uM
[11] = biological target: Ribosomal protein S6 kinase alpha-1 (Homo sapiens, UniProt Q15418); assay: Inhibition of human Rsk1 kinase assessed as residual enzyme activity at 0.1 uM
[12] = biological target: Protein kinase C gamma type (Homo sapiens) (UniProt P05129); assay: Inhibition of human PKCgamma kinase assessed as residual enzyme activity at 0.1 uM
[13] = biological target: BDNF/NT-3 growth factors receptor (Homo sapiens) (UniProt Q16620); assay: Inhibition of TrkB assessed as residual enzyme activity at 1 uM
BDNF/NT-3 growth factors receptor (Homo sapiens), sequence (Q16620 32-822 limits assumed): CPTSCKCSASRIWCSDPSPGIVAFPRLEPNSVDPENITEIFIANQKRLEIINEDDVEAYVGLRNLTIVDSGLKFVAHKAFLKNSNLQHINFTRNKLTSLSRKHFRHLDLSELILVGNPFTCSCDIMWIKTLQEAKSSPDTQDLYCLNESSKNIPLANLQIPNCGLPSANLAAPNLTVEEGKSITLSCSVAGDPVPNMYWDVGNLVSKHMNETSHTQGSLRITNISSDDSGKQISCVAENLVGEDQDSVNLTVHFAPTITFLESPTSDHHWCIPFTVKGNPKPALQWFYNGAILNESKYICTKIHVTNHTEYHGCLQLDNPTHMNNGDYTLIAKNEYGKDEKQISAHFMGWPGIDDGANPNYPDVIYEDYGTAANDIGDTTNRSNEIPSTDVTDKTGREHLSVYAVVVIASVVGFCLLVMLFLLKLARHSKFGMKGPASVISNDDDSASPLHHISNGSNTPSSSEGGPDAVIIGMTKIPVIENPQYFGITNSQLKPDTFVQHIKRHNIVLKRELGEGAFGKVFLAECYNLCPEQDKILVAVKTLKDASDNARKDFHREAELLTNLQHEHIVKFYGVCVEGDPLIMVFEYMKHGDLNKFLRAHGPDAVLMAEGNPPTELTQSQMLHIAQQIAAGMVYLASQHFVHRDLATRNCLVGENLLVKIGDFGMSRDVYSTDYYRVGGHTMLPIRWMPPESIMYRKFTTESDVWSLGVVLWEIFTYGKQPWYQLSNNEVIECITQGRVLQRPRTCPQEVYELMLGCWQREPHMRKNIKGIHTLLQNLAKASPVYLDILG

[14] = biological target: Epidermal growth factor receptor (Homo sapiens) (UniProt P00533); assay: Inhibition of human EGFR kinase assessed as residual enzyme activity at 0.1 uM
[15] = biological target: Ribosomal protein S6 kinase alpha-5 (Homo sapiens) (UniProt O75582); assay: Inhibition of human MSK1 kinase assessed as residual enzyme activity at 0.1 uM
Ribosomal protein S6 kinase alpha-5 (Homo sapiens), sequence (O75582 whole entry, looked up): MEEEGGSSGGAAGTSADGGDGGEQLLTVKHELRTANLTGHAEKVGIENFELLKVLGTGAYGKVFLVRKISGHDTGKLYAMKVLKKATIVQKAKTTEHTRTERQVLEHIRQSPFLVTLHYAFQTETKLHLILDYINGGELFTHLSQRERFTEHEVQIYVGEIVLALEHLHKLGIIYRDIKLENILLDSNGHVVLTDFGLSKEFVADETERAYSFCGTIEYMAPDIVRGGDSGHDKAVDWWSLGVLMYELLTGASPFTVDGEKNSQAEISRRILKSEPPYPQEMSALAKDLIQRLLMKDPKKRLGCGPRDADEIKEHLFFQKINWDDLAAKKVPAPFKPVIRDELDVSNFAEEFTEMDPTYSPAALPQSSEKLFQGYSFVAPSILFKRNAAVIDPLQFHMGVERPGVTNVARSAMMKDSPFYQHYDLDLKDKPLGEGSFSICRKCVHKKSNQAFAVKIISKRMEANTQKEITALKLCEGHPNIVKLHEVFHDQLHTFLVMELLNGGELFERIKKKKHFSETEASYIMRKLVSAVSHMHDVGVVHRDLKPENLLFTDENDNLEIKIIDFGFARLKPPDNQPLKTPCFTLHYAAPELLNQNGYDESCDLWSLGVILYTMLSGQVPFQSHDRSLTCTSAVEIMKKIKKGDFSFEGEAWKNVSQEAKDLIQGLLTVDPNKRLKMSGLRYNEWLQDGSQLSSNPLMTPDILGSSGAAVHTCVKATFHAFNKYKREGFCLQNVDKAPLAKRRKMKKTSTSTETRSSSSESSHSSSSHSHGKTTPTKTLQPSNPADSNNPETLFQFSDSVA

[16] = biological target: Receptor-interacting serine/threonine-protein kinase 2 (Homo sapiens) (UniProt O43353); assay: Inhibition of human RIPK2 kinase assessed as residual enzyme activity at 0.1 uM
[17] = biological target: Mast/stem cell growth factor receptor Kit (Homo sapiens) (UniProt P10721); assay: Inhibition of human cKit assessed as residual enzyme activity at 0.1 uM
[18] = biological target: RAF proto-oncogene serine/threonine-protein kinase (Homo sapiens) (UniProt P04049); assay: Inhibition of human c-RAF assessed as residual enzyme activity at 0.1 uM
RAF proto-oncogene serine/threonine-protein kinase (Homo sapiens), sequence (P04049 whole entry): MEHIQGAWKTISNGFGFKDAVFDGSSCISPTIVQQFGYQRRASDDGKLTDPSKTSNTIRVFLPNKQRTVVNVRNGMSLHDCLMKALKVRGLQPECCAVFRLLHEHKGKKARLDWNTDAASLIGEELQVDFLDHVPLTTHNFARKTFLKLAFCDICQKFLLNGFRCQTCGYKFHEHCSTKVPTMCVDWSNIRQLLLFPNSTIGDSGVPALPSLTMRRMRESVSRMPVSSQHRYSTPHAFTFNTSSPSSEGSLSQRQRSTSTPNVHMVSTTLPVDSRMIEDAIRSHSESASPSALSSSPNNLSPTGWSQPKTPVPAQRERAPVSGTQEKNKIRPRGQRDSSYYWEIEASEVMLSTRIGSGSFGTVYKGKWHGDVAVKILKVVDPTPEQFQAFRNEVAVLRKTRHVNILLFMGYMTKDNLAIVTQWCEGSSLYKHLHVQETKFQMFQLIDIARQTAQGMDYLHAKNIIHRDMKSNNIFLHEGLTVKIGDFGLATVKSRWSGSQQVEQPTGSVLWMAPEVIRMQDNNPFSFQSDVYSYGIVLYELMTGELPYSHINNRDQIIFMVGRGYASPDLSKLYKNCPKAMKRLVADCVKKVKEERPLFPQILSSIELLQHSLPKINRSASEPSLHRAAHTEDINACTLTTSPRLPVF

[19] = biological target: Tyrosine-protein kinase ZAP-70 (Homo sapiens) (UniProt P43403); assay: Inhibition of human ZAP70 kinase assessed as residual enzyme activity at 0.1 uM
[20] = biological target: Macrophage colony-stimulating factor 1 receptor (Homo sapiens) (UniProt P07333); assay: Inhibition of human Fms kinase assessed as residual enzyme activity at 0.1 uM
[21] = tested on: HCT-116; assay: Antitumor activity in human HCT116 cells xenografted athymic mouse assessed as growth inhibition at 5 mg/kg, po qd; assay type: functional; conditions: read-out: TGI
[22] = biological target: Discoidin domain-containing receptor 2 (Homo sapiens) (UniProt Q16832); assay: Inhibition of human DDR2 kinase assessed as residual enzyme activity at 0.1 uM
[23] = biological target: Tyrosine-protein kinase Fer (Homo sapiens) (UniProt P16591); assay: Inhibition of human Fer kinase assessed as residual enzyme activity at 0.1 uM
Tyrosine-protein kinase Fer (Homo sapiens), sequence (P16591 whole entry, looked up): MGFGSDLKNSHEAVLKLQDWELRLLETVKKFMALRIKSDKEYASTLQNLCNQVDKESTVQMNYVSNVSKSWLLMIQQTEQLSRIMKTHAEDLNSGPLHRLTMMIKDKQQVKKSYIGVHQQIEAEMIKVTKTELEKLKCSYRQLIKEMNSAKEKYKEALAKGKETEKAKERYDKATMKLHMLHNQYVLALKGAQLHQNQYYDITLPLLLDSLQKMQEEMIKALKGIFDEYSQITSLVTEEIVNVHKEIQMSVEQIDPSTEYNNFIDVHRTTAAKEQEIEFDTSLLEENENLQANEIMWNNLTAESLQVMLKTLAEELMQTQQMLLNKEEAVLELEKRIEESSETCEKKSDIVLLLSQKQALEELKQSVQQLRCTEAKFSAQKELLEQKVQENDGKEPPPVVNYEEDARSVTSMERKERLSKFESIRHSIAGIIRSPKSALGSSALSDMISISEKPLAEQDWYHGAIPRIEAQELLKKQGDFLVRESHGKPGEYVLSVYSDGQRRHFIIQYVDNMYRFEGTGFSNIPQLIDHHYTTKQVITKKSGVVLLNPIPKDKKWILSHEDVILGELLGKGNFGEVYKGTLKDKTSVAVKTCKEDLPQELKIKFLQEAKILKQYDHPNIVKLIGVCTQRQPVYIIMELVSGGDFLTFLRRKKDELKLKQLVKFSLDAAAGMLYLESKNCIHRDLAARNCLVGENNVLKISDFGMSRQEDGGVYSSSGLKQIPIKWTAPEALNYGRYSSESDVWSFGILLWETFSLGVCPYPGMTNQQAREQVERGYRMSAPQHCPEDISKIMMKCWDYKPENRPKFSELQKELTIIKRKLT

[24] = biological target: Tyrosine-protein kinase BTK (Homo sapiens) (UniProt Q06187); assay: Inhibition of human BTK kinase assessed as residual enzyme activity at 0.1 uM
[25] = biological target: Ephrin type-A receptor 5 (Homo sapiens) (UniProt P54756); assay: Inhibition of human EphA5 kinase assessed as residual enzyme activity at 0.1 uM
[26] = biological target: Inhibitor of nuclear factor kappa-B kinase subunit beta (Homo sapiens) (UniProt O14920); assay: Inhibition of human IKK-beta kinase assessed as residual enzyme activity at 0.1 uM
[27] = biological target: Mitogen-activated protein kinase 14 (Homo sapiens) (UniProt Q16539); assay: Inhibition of human SAPK2a kinase assessed as residual enzyme activity at 0.1 uM
[28] = biological target: Ephrin type-A receptor 1 (Homo sapiens) (UniProt P21709); assay: Inhibition of human EphA1 kinase assessed as residual enzyme activity at 0.1 uM
[29] = biological target: LIM domain kinase 1 (Homo sapiens) (UniProt P53667); assay: Inhibition of human LIMK1 kinase assessed as residual enzyme activity at 0.1 uM
[30] = biological target: BDNF/NT-3 growth factors receptor (Homo sapiens) (UniProt Q16620); assay: Inhibition of human TrkB kinase assessed as residual enzyme activity at 0.1 uM
[31] = biological target: ALK tyrosine kinase receptor (Homo sapiens) (UniProt Q9UM73); assay: Inhibition of human ALK assessed as residual enzyme activity at 0.1 uM
[32] = biological target: Protein kinase C theta type (Homo sapiens) (UniProt Q04759); assay: Inhibition of human PKCtheta kinase assessed as residual enzyme activity at 0.1 uM
[33] = biological target: Mitogen-activated protein kinase 1 (Homo sapiens) (UniProt P28482); assay: Inhibition of human MAPK1 kinase assessed as residual enzyme activity at 0.1 uM
[34] = biological target: Serine/threonine-protein kinase Nek6 (Homo sapiens) (UniProt Q9HC98); assay: Inhibition of human NEK6 kinase assessed as residual enzyme activity at 0.1 uM
Serine/threonine-protein kinase Nek6 (Homo sapiens), sequence (Q9HC98 whole entry): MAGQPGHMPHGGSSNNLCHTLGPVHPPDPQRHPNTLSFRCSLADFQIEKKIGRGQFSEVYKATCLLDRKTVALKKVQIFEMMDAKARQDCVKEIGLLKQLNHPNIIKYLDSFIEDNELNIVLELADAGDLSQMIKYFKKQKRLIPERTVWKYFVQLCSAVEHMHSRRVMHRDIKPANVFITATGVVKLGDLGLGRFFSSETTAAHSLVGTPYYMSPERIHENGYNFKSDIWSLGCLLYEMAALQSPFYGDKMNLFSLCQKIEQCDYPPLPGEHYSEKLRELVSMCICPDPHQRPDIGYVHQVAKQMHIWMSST

[35] = biological target: Interleukin-1 receptor-associated kinase 1 (Homo sapiens) (UniProt P51617); assay: Inhibition of human IRAK1 kinase assessed as residual enzyme activity at 0.1 uM
Interleukin-1 receptor-associated kinase 1 (Homo sapiens), sequence (P51617 whole entry, looked up): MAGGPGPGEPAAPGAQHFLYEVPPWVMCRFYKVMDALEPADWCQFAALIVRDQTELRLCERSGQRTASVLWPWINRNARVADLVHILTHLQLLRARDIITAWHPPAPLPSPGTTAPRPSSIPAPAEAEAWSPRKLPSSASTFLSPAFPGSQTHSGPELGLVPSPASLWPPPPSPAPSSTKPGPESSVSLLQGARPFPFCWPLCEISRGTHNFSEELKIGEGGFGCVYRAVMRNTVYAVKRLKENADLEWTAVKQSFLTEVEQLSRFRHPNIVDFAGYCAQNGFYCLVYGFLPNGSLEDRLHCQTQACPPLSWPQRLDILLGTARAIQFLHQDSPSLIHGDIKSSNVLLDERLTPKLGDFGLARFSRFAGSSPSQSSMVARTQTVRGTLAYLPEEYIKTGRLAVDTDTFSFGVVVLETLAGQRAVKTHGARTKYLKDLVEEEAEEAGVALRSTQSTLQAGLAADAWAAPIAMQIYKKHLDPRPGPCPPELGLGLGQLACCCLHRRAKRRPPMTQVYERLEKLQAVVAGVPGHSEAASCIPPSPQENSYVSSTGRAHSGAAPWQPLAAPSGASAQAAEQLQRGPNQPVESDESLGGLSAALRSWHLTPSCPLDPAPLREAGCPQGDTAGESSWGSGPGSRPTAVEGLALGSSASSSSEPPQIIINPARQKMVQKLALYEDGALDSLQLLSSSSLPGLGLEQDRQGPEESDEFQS

[36] = biological target: Platelet-derived growth factor receptor alpha (Homo sapiens) (UniProt P16234); assay: Inhibition of human PDGFRalpha assessed as residual enzyme activity at 0.1 uM
[37] = biological target: Serine/threonine-protein kinase PAK 2 (Homo sapiens) (UniProt Q13177); assay: Inhibition of human PAK2 assessed as residual enzyme activity at 0.1 uM
[38] = biological target: Misshapen-like kinase 1 (Homo sapiens) (UniProt Q8N4C8); assay: Inhibition of human MINK assessed as residual enzyme activity at 0.1 uM
[39] = biological target: Dual specificity tyrosine-phosphorylation-regulated kinase 2 (Homo sapiens) (UniProt Q92630); assay: Inhibition of human DYRK2 kinase assessed as residual enzyme activity at 0.1 uM
[40] = species: Homo sapiens; assay: Inhibition of human ALK4 assessed as residual enzyme activity at 0.1 uM
[41] = biological target: Myotonin-protein kinase (Homo sapiens) (UniProt Q09013); assay: Inhibition of human DMPK assessed as residual enzyme activity at 0.1 uM

SMILES: CCN1C(=O)C(C)(C)c2cc3[nH]c4c(c3cc21)CCCc1c(C)n[nH]c1-4
- IC50 [1]: 70 nM
- Activity [2]: 103%
- Activity [3]: 1%
- Activity [4]: 41%
- Activity [5]: 110%
- Activity [6]: 105%
- Activity [7]: 87%
- Activity [8]: 48%
- Activity [9]: 103%
- Activity [10]: 98%
- Activity [11]: 29%
- Activity [12]: 100%
- Activity [13]: 2%
- Activity [14]: 107%
- Activity [15]: 96%
- Activity [16]: 95%
- Activity [17]: 77%
- Activity [18]: 106%
- Activity [19]: 127%
- Activity [20]: 2%
- inhibition in vivo at 5 mg/kg [21]: 92%
- Activity [22]: 81%
- Activity [23]: 53%
- Activity [24]: 86%
- Activity [25]: 105%
- Activity [26]: 114%
- Activity [27]: 124%
- Activity [28]: 79%
- Activity [29]: 79%
- Activity [30]: 5%
- Activity [31]: 23%
- Activity [32]: 95%
- Activity [33]: 112%
- Activity [34]: 95%
- Activity [35]: 93%
- Activity [36]: 91%
- Activity [37]: 103%
- Activity [38]: 110%
- Activity [39]: 107%
- Activity [40]: 113%
- Activity [41]: 97%

Source: ChEMBL document CHEMBL1155876 (J Med Chem, 2008)
